Data reported in the supplement of paper PMC10307832.

What was measured:
Experiment in all cases: relative viability (nuclei count vs DMSO), 5 days (fraction); higher = more cells survive
[1] = system: SW 1573
Method in brief: (§1)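 Nuclei were stained with Hoechst during a one-step fixation (final 0.05% Triton X-100, 1% formaldehyde, 1 ug/ml Hoechst) carried out 5 days after dosing, then counted on 4× images. The cells, lung cancer lines in 1536-well plates, had been dosed by pin tool the day after seeding with one drug alone or a fixed anchor-drug dose plus five library-drug doses (not always all listed) in √10 steps. Relative viability is the nuclei count in treated wells divided by that in vehicle wells, and each value is the median of duplicate plates.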

[2] = system: NCI-H727
Method in brief: as §1

[3] = system: LC-2-ad
Method in brief: as §1

[4] = system: HCC-15
Method in brief: as §1

[5] = system: LU99A
Method in brief: as §1

[6] = system: BEN
Method in brief: as §1

[7] = system: NCI-H1563
Method in brief: as §1

[8] = system: NCI-H650
Method in brief: as §1

[9] = system: NCI-H2023
Method in brief: as §1

[10] = system: NCI-H2126
Method in brief: as §1

[11] = system: NCI-H3122
Method in brief: as §1

[12] = system: EMC-BAC-2
Method in brief: as §1

[13] = system: NCI-H1915
Method in brief: as §1

[14] = system: NCI-H358
Method in brief: as §1

[15] = system: NCI-H2170
Method in brief: as §1

[16] = system: NCI-H1755
Method in brief: as §1

[17] = system: NCI-H1437
Method in brief: as §1

[18] = system: HOP-62
Method in brief: as §1

[19] = system: NCI-H1734
Method in brief: as §1

[20] = system: HCC-44
Method in brief: as §1

Q: For CCNC(=O)c1noc(-c2cc(C(C)C)c(O)cc2O)c1-c1ccc(CN2CCOCC2)cc1 [Luminespib] + C[C@@H](Oc1cc(-c2cnn(C3CCNCC3)c2)cnc1N)c1c(Cl)ccc(F)c1Cl [Crizotinib] (partner 1 µM), which relative viability ([1]; first compound 0.002 µM) is on record?
A: 0.833

Q: And the relative viability ([1]; first compound 0.006325 µM)?
A: 0.853

Q: And the relative viability ([1]; first compound 0.02 µM)?
A: 0.757

Q: And the relative viability ([1]; first compound 0.06325 µM)?
A: 0.191

Q: What about the relative viability ([1]; first compound 0.2 µM) of the same molecule?
A: 0.0946

Q: What about the relative viability ([2]; first compound 0.002 µM) of the same molecule?
A: 0.757

Q: And the relative viability ([2]; first compound 0.006325 µM)?
A: 0.744

Q: What about the relative viability ([2]; first compound 0.02 µM) of the same molecule?
A: 0.739

Q: And the relative viability ([2]; first compound 0.06325 µM)?
A: 0.212

Q: What about the relative viability ([2]; first compound 0.2 µM) of the same molecule?
A: 0.204

Q: And the relative viability ([3]; first compound 0.002 µM)?
A: 0.48

Q: What about the relative viability ([3]; first compound 0.006325 µM) of the same molecule?
A: 0.482

Q: And the relative viability ([3]; first compound 0.06325 µM)?
A: 0.289

Q: And the relative viability ([3]; first compound 0.2 µM)?
A: 0.262

Q: And the relative viability ([4]; first compound 0.002 µM)?
A: 0.836

Q: What about the relative viability ([4]; first compound 0.006325 µM) of the same molecule?
A: 0.863

Q: What about the relative viability ([4]; first compound 0.02 µM) of the same molecule?
A: 0.901

Q: And the relative viability ([4]; first compound 0.06325 µM)?
A: 0.473

Q: What about the relative viability ([4]; first compound 0.2 µM) of the same molecule?
A: 0.412

Q: And the relative viability ([5]; first compound 0.002 µM)?
A: 0.606

Q: And the relative viability ([5]; first compound 0.006325 µM)?
A: 0.628

Q: And the relative viability ([5]; first compound 0.02 µM)?
A: 0.343

Q: What about the relative viability ([5]; first compound 0.06325 µM) of the same molecule?
A: 0.127

Q: And the relative viability ([5]; first compound 0.2 µM)?
A: 0.112

Q: And the relative viability ([6]; first compound 0.002 µM)?
A: 0.792

Q: What about the relative viability ([6]; first compound 0.006325 µM) of the same molecule?
A: 0.834

Q: And the relative viability ([6]; first compound 0.02 µM)?
A: 0.416

Q: What about the relative viability ([6]; first compound 0.06325 µM) of the same molecule?
A: 0.341

Q: What about the relative viability ([6]; first compound 0.2 µM) of the same molecule?
A: 0.203

Q: What about the relative viability ([7]; first compound 0.002 µM) of the same molecule?
A: 0.937

Q: And the relative viability ([7]; first compound 0.006325 µM)?
A: 0.834

Q: And the relative viability ([7]; first compound 0.02 µM)?
A: 0.811

Q: And the relative viability ([7]; first compound 0.06325 µM)?
A: 0.473

Q: What about the relative viability ([7]; first compound 0.2 µM) of the same molecule?
A: 0.536

Q: What about the relative viability ([8]; first compound 0.002 µM) of the same molecule?
A: 0.887

Q: What about the relative viability ([8]; first compound 0.006325 µM) of the same molecule?
A: 0.745

Q: And the relative viability ([8]; first compound 0.02 µM)?
A: 0.487

Q: And the relative viability ([8]; first compound 0.06325 µM)?
A: 0.0913

Q: And the relative viability ([8]; first compound 0.2 µM)?
A: 0.102

Q: What about the relative viability ([9]; first compound 0.002 µM) of the same molecule?
A: 0.772

Q: What about the relative viability ([9]; first compound 0.006325 µM) of the same molecule?
A: 0.586

Q: And the relative viability ([9]; first compound 0.02 µM)?
A: 0.569

Q: What about the relative viability ([9]; first compound 0.06325 µM) of the same molecule?
A: 0.0759

Q: What about the relative viability ([9]; first compound 0.2 µM) of the same molecule?
A: 0.0557

Q: And the relative viability ([10]; first compound 0.002 µM)?
A: 1.08

Q: What about the relative viability ([10]; first compound 0.006325 µM) of the same molecule?
A: 0.97

Q: What about the relative viability ([10]; first compound 0.02 µM) of the same molecule?
A: 0.84

Q: And the relative viability ([10]; first compound 0.06325 µM)?
A: 0.993

Q: What about the relative viability ([10]; first compound 0.2 µM) of the same molecule?
A: 0.951

Q: And the relative viability ([11]; first compound 0.002 µM)?
A: 0.278

Q: And the relative viability ([11]; first compound 0.006325 µM)?
A: 0.267

Q: And the relative viability ([11]; first compound 0.02 µM)?
A: 0.222

Q: What about the relative viability ([11]; first compound 0.06325 µM) of the same molecule?
A: 0.181

Q: And the relative viability ([11]; first compound 0.2 µM)?
A: 0.165

Q: What about the relative viability ([12]; first compound 0.002 µM) of the same molecule?
A: 0.844

Q: And the relative viability ([12]; first compound 0.006325 µM)?
A: 0.772

Q: What about the relative viability ([12]; first compound 0.02 µM) of the same molecule?
A: 0.584

Q: What about the relative viability ([12]; first compound 0.06325 µM) of the same molecule?
A: 0.729

Q: And the relative viability ([12]; first compound 0.2 µM)?
A: 0.759

Q: What about the relative viability ([13]; first compound 0.002 µM) of the same molecule?
A: 0.952

Q: And the relative viability ([13]; first compound 0.006325 µM)?
A: 0.897

Q: What about the relative viability ([13]; first compound 0.02 µM) of the same molecule?
A: 0.958

Q: What about the relative viability ([13]; first compound 0.06325 µM) of the same molecule?
A: 0.904

Q: What about the relative viability ([13]; first compound 0.2 µM) of the same molecule?
A: 0.851

Q: And the relative viability ([14]; first compound 0.002 µM)?
A: 0.699

Q: What about the relative viability ([14]; first compound 0.006325 µM) of the same molecule?
A: 0.647

Q: What about the relative viability ([14]; first compound 0.02 µM) of the same molecule?
A: 0.608

Q: And the relative viability ([14]; first compound 0.06325 µM)?
A: 0.0797

Q: What about the relative viability ([14]; first compound 0.2 µM) of the same molecule?
A: 0.0988

Q: And the relative viability ([15]; first compound 0.002 µM)?
A: 1.19

Q: What about the relative viability ([15]; first compound 0.006325 µM) of the same molecule?
A: 1.23

Q: And the relative viability ([15]; first compound 0.02 µM)?
A: 0.655

Q: What about the relative viability ([15]; first compound 0.06325 µM) of the same molecule?
A: 1.08

Q: And the relative viability ([15]; first compound 0.2 µM)?
A: 0.355

Q: What about the relative viability ([16]; first compound 0.002 µM) of the same molecule?
A: 0.878

Q: And the relative viability ([16]; first compound 0.006325 µM)?
A: 0.882

Q: What about the relative viability ([16]; first compound 0.02 µM) of the same molecule?
A: 0.938

Q: And the relative viability ([16]; first compound 0.06325 µM)?
A: 0.756

Q: And the relative viability ([16]; first compound 0.2 µM)?
A: 0.315

Q: And the relative viability ([17]; first compound 0.002 µM)?
A: 0.92

Q: What about the relative viability ([17]; first compound 0.006325 µM) of the same molecule?
A: 0.833

Q: And the relative viability ([17]; first compound 0.02 µM)?
A: 1.05

Q: And the relative viability ([17]; first compound 0.06325 µM)?
A: 0.83

Q: And the relative viability ([17]; first compound 0.2 µM)?
A: 0.478

Q: And the relative viability ([18]; first compound 0.002 µM)?
A: 0.931

Q: And the relative viability ([18]; first compound 0.006325 µM)?
A: 0.962

Q: And the relative viability ([18]; first compound 0.02 µM)?
A: 0.79

Q: And the relative viability ([18]; first compound 0.06325 µM)?
A: 0.993

Q: And the relative viability ([18]; first compound 0.2 µM)?
A: 0.875

Q: And the relative viability ([19]; first compound 0.002 µM)?
A: 0.77

Q: And the relative viability ([19]; first compound 0.006325 µM)?
A: 0.612

Q: And the relative viability ([19]; first compound 0.02 µM)?
A: 0.566

Q: What about the relative viability ([19]; first compound 0.06325 µM) of the same molecule?
A: 0.135

Q: What about the relative viability ([19]; first compound 0.2 µM) of the same molecule?
A: 0.0997

Q: And the relative viability ([20]; first compound 0.002 µM)?
A: 0.843

Q: And the relative viability ([20]; first compound 0.006325 µM)?
A: 0.768

Q: What about the relative viability ([20]; first compound 0.02 µM) of the same molecule?
A: 1

Q: And the relative viability ([20]; first compound 0.06325 µM)?
A: 0.12

Q: What about the relative viability ([20]; first compound 0.2 µM) of the same molecule?
A: 0.091
